Article PMC10819888, “Benzimidazole-Based Derivatives as Apoptotic Antiproliferative Agents: Design, Synthesis, Docking, and Mechanistic Studies” (Molecules, 2024)

Columns and labels:
SK-OV-3 = test: NCI-60 five-dose assay; type: cell-based, human; settings: SK-OV-3 (Ovarian Cancer), 48 h; for GI50 / CC50: Homo sapiens; for GI50: read-out: GI50 Conc. per Cell Line; for CC50: read-out: LC50 (the source's name)
SNB-75 = test: NCI-60 one-dose assay; type: cell-based; settings: Homo sapiens, SNB-75 (CNS cancer), read-out: Cell Inhibition Percent
SF-539 = test: NCI-60 one-dose assay; type: cell-based; settings: Homo sapiens, SF-539 (CNS cancer), read-out: Cell Inhibition Percent
HS 578T = test: NCI-60 one-dose assay; type: cell-based; settings: Homo sapiens, HS 578T (Breast Cancer), read-out: Cell Inhibition Percent
A549/ATCC = test: NCI-60 one-dose assay; type: cell-based; settings: Homo sapiens, A549/ATCC (Non-Small Cell Lung Cancer), read-out: Cell Inhibition Percent
ACHN = test: NCI-60 one-dose assay; type: cell-based; settings: Homo sapiens, ACHN (Renal Cancer), read-out: Cell Inhibition Percent
SNB-19 = test: NCI-60 one-dose assay; type: cell-based; settings: Homo sapiens, SNB-19 (CNS cancer), read-out: Cell Inhibition Percent
MCF7 = test: NCI-60 one-dose assay; type: cell-based; settings: Homo sapiens, MCF7 (Breast Cancer), read-out: Cell Inhibition Percent
NCI-H522 = test: NCI-60 one-dose assay; type: cell-based; settings: Homo sapiens, NCI-H522 (Non-Small Cell Lung Cancer), read-out: Cell Inhibition Percent
OVCAR-8 = test: NCI-60 one-dose assay; type: cell-based; settings: Homo sapiens, OVCAR-8 (ovarian cancer), read-out: Cell Inhibition Percent
BT-549 = test: NCI-60 one-dose assay; type: cell-based; settings: Homo sapiens, BT-549 (Breast Cancer), read-out: Cell Inhibition Percent
HOP-92 = test: NCI-60 one-dose assay; type: cell-based; settings: Homo sapiens, HOP-92 (Non-Small Cell Lung Cancer), read-out: Cell Inhibition Percent
T-47D = test: NCI-60 one-dose assay; type: cell-based; settings: Homo sapiens, T47D, T-47D (Breast Cancer), read-out: Cell Inhibition Percent
K-562 = test: NCI-60 one-dose assay; type: cell-based; settings: Homo sapiens, K562, K-562 (Leukemia), read-out: Cell Inhibition Percent
SN12C = test: NCI-60 one-dose assay; type: cell-based; settings: Homo sapiens, SN12C (Renal Cancer), read-out: Cell Inhibition Percent
MOLT-4 = test: NCI-60 one-dose assay; type: cell-based; settings: Homo sapiens, MOLT-4 (Leukemia), read-out: Cell Inhibition Percent
SF-268 = test: NCI-60 one-dose assay; type: cell-based; settings: Homo sapiens, SF-268 (CNS cancer), read-out: Cell Inhibition Percent
NCI/ADR-RES = test: NCI-60 one-dose assay; type: cell-based; settings: Homo sapiens, NCI/ADR-RES (ovarian cancer), read-out: Cell Inhibition Percent
MDA-MB 231 = test: NCI-60 one-dose assay; type: cell-based; settings: Homo sapiens, MDA-MB 231 (Breast Cancer), read-out: Cell Inhibition Percent
A498 = test: NCI-60 one-dose assay; type: cell-based; settings: Homo sapiens, A498 (Renal Cancer), read-out: Cell Inhibition Percent
NCI-H322M = test: NCI-60 one-dose assay; type: cell-based; settings: Homo sapiens, NCI-H322M (Non-Small Cell Lung Cancer), read-out: Cell Inhibition Percent
UACC-62 = test: NCI-60 one-dose assay; type: cell-based; settings: Homo sapiens, UACC-62 (Melanoma), read-out: Cell Inhibition Percent
786-0 = test: NCI-60 one-dose assay; type: cell-based; settings: Homo sapiens, 786-0 (Renal Cancer), read-out: Cell Inhibition Percent
SR = test: NCI-60 one-dose assay; type: cell-based; settings: Homo sapiens, SR (Leukemia), read-out: Cell Inhibition Percent
RXF 393 = test: NCI-60 one-dose assay; type: cell-based; settings: Homo sapiens, RXF 393 (Renal Cancer), read-out: Cell Inhibition Percent
SK-MEL-28 = test: NCI-60 one-dose assay; type: cell-based; settings: Homo sapiens, SK-MEL-28 (Melanoma), read-out: Cell Inhibition Percent
HCT-116 = test: NCI-60 one-dose assay; type: cell-based; settings: Homo sapiens, HCT-116 (Colon Cancer), read-out: Cell Inhibition Percent
OVCAR-5 = test: NCI-60 one-dose assay; type: cell-based; settings: Homo sapiens, OVCAR-5 (ovarian cancer), read-out: Cell Inhibition Percent
CCRF-CEM = test: NCI-60 one-dose assay; type: cell-based; settings: Homo sapiens, CCRF-CEM (Leukemia), read-out: Cell Inhibition Percent
NCI-H460 = test: NCI-60 one-dose assay; type: cell-based; settings: Homo sapiens, NCI-H460 (Non-Small Cell Lung Cancer), read-out: Cell Inhibition Percent

SMILES	GI50 (SK-OV-3) [µM]	CC50 (SK-OV-3) [µM]	TGI (SK-OV-3) [µM]	inhibition at 10 µM (SNB-75) [%]	inhibition at 10 µM (SF-539) [%]	inhibition at 10 µM (HS 578T) [%]	inhibition at 10 µM (A549/ATCC) [%]	inhibition at 10 µM (ACHN) [%]	inhibition at 10 µM (SNB-19) [%]	inhibition at 10 µM (MCF7) [%]	inhibition at 10 µM (NCI-H522) [%]	inhibition at 10 µM (OVCAR-8) [%]	inhibition at 10 µM (BT-549) [%]	inhibition at 10 µM (HOP-92) [%]	inhibition at 10 µM (T-47D) [%]	inhibition at 10 µM (K-562) [%]	inhibition at 10 µM (SN12C) [%]	inhibition at 10 µM (MOLT-4) [%]	inhibition at 10 µM (SF-268) [%]	inhibition at 10 µM (NCI/ADR-RES) [%]	also measured
O=C(NN=Cc1ccc([N+](=O)[O-])cc1)c1ccc2[nH]c(-c3ccc(Cl)cc3)nc2c1 [Compound 4c, N′-(4-Nitrobenzylidene)-2-(4-chlorophenyl)-1H-benzimidazole-5-carbohydrazide]	11.4	> 100	39.60	30.7	58.3	63.2	65.5	67.7	48	99.3	67	78.4	86	40.3	89.5	90.3	80.3	95.8	51.5	22.7	inhibition at 10 µM (MDA-MB 231): 23.1%; inhibition at 10 µM (A498): 100%; inhibition at 10 µM (NCI-H322M): 29.9%; inhibition at 10 µM (UACC-62): 56.4%; inhibition at 10 µM (786-0): 51%; inhibition at 10 µM (SR): 108%; inhibition at 10 µM (RXF 393): 68.4%; inhibition at 10 µM (SK-MEL-28): 54.6%; inhibition at 10 µM (HCT-116): 85.4%; inhibition at 10 µM (OVCAR-5): 46.8%; inhibition at 10 µM (CCRF-CEM): 90.1%; inhibition at 10 µM (NCI-H460): 94.6%
O=C(NN=Cc1ccc(Cl)cc1)c1ccc2[nH]c(-c3ccc(Cl)cc3)nc2c1 [Compound 4e, N′-(4-Chlorobenzylidene)-2-(4-chlorophenyl)-1H-benzimidazole-5-carbohydrazide]	1.79	11	4.31	1.6	62.9	67	127	120	95.7	120	36.8	85.8	0	71.9	113	91.3	137	95.5	62	58.8	inhibition at 10 µM (MDA-MB 231): 90.5%; inhibition at 10 µM (A498): 43.9%; inhibition at 10 µM (NCI-H322M): 72.3%; inhibition at 10 µM (UACC-62): 83.2%; inhibition at 10 µM (786-0): 142%; inhibition at 10 µM (SR): 124%; inhibition at 10 µM (RXF 393): 81.1%; inhibition at 10 µM (SK-MEL-28): 109%; inhibition at 10 µM (HCT-116): 102%; inhibition at 10 µM (OVCAR-5): 76.3%; inhibition at 10 µM (CCRF-CEM): 84.5%; inhibition at 10 µM (NCI-H460): 134%
